Measurements published in ChEMBL document CHEMBL3046827, “Synthesis and antimicrobial activities of N-chloroacetyl-2,6-diarylpiperidin-4-ones” (2007).
≈ marks a conversion by molar mass, not a printed value. Calls of active or inactive are those of the source. The calls are words filed in the database; no cut-off is given here.

Experiments:
[1] = system: Aspergillus flavus; experiment: Antifungal activity against Aspergillus flavus after 72 to 96 hr by two-fold serial dilution method; type: functional
[2] = system: Aspergillus niger; experiment: Antifungal activity against Aspergillus niger after 72 to 96 hr by two-fold serial dilution method; type: functional
[3] = system: Rhizopus; experiment: Antifungal activity against Rhizopus sp. after 72 to 96 hr by two-fold serial dilution method; type: functional
[4] = system: Candida albicans; experiment: Antifungal activity against Candida albicans after 72 to 96 hr by two-fold serial dilution method; type: functional
[5] = system: Cryptococcus neoformans; experiment: Antifungal activity against Cryptococcus neoformans after 72 to 96 hr by two-fold serial dilution method; type: functional
[6] = system: Salmonella typhi; experiment: Antibacterial activity against Salmonella enterica subsp. enterica serovar Typhi after 24 hr by twofold serial dilution method; type: functional
[7] = system: Pseudomonas aeruginosa; experiment: Antibacterial activity against Pseudomonas aeruginosa after 24 hr by twofold serial dilution method; type: functional
[8] = system: Escherichia coli; experiment: Antibacterial activity against Escherichia coli after 24 hr by two-fold serial dilution method; type: functional
[9] = system: Bacillus subtilis; experiment: Antibacterial activity against Bacillus subtilis after 24 hr by two-fold serial dilution method; type: functional
[10] = system: Staphylococcus aureus; experiment: Antibacterial activity against Staphylococcus aureus after 24 hr by two-fold serial dilution method; type: functional
[11] = system: Aspergillus flavus; experiment: Antifungal activity against Aspergillus flavus assessed as growth inhibition at 200 ug/mL after 72 to 96 hr by two-fold serial dilution method; type: functional, organism-based
[12] = system: Aspergillus niger; experiment: Antifungal activity against Aspergillus niger assessed as growth inhibition at 200 ug/mL after 72 to 96 hr by two-fold serial dilution method; type: functional, organism-based
[13] = system: Rhizopus; experiment: Antifungal activity against Rhizopus sp. assessed as growth inhibition at 200 ug/mL after 72 to 96 hr by two-fold serial dilution method; type: functional, organism-based
[14] = system: Cryptococcus neoformans; experiment: Antifungal activity against Cryptococcus neoformans assessed as growth inhibition at 200 ug/mL after 72 to 96 hr by two-fold serial dilution method; type: functional, organism-based
[15] = system: Escherichia coli; experiment: Antibacterial activity against Escherichia coli assessed as growth inhibition at 200 ug/mL after 24 hr by two-fold serial dilution method; type: functional, organism-based
[16] = system: Bacillus subtilis; experiment: Antibacterial activity against Bacillus subtilis assessed as growth inhibition at 200 ug/mL after 24 hr by two-fold serial dilution method; type: functional, organism-based

Compound | MIC [1] [µg/mL] | MIC [2] [µg/mL] | MIC [3] [µg/mL] | MIC [4] [µg/mL] | MIC [5] [µg/mL] | MIC [6] [µg/mL] | MIC [7] [µg/mL] | MIC [8] [µg/mL] | MIC [9] [µg/mL] | MIC [10] [µg/mL] | growth inhibition (GI) [11] | growth inhibition (GI) [12] | growth inhibition (GI) [13] | growth inhibition (GI) [14] | growth inhibition (GI) [15] | growth inhibition (GI) [16]
Cc1ccc(C2CC(=O)C(C)C(c3ccc(C)cc3)N2C(=O)CCl)cc1 (configuration not stated) | 12.5 (≈ 33.8 µM) | 12.5 (≈ 33.8 µM) | 50 (≈ 135 µM) | 50 (≈ 135 µM) | 25 (≈ 67.6 µM) | 50 (≈ 135 µM) | 100 (≈ 270 µM) | 25 (≈ 67.6 µM) | 12.5 (≈ 33.8 µM) | 100 (≈ 270 µM) | – | – | – | – | – | –
CC(C)C1C(=O)CC(c2ccccc2)N(C(=O)CCl)C1c1ccccc1 (configuration not stated) | – | 100 (≈ 270 µM) | 100 (≈ 270 µM) | 50 (≈ 135 µM) | 200 (≈ 541 µM) | 100 (≈ 270 µM) | 200 (≈ 541 µM) | 200 (≈ 541 µM) | 200 (≈ 541 µM) | 100 (≈ 270 µM) | inactive | – | – | – | – | –
COc1ccc(C2CC(=O)C(C)C(c3ccc(OC)cc3)N2C(=O)CCl)cc1 (configuration not stated) | 50 (≈ 124 µM) | 50 (≈ 124 µM) | 25 (≈ 62.2 µM) | 100 (≈ 249 µM) | 100 (≈ 249 µM) | 100 (≈ 249 µM) | 50 (≈ 124 µM) | 100 (≈ 249 µM) | 200 (≈ 498 µM) | 25 (≈ 62.2 µM) | – | – | – | – | – | –
CC1C(=O)C(C)C(c2ccc(Cl)cc2)N(C(=O)CCl)C1c1ccc(Cl)cc1 (configuration not stated) | 100 (≈ 235 µM) | 50 (≈ 118 µM) | 100 (≈ 235 µM) | 200 (≈ 471 µM) | 50 (≈ 118 µM) | 25 (≈ 58.9 µM) | 100 (≈ 235 µM) | 50 (≈ 118 µM) | 100 (≈ 235 µM) | 12.5 (≈ 29.4 µM) | – | – | – | – | – | –
CC1C(=O)CC(c2ccc(Cl)cc2)N(C(=O)CCl)C1c1ccc(Cl)cc1 (configuration not stated) | 25 (≈ 60.9 µM) | 50 (≈ 122 µM) | 25 (≈ 60.9 µM) | 100 (≈ 243 µM) | 100 (≈ 243 µM) | 100 (≈ 243 µM) | 12.5 (≈ 30.4 µM) | 25 (≈ 60.9 µM) | 100 (≈ 243 µM) | 50 (≈ 122 µM) | – | – | – | – | – | –
COc1ccc(C2C(C)C(=O)C(C)C(c3ccc(OC)cc3)N2C(=O)CCl)cc1 (configuration not stated) | 50 (≈ 120 µM) | 25 (≈ 60.1 µM) | 100 (≈ 240 µM) | 100 (≈ 240 µM) | 100 (≈ 240 µM) | 25 (≈ 60.1 µM) | 100 (≈ 240 µM) | 100 (≈ 240 µM) | 50 (≈ 120 µM) | 50 (≈ 120 µM) | – | – | – | – | – | –
CN[C@@H]1[C@H](O[C@H]2[C@H](O[C@H]3[C@H](O)[C@@H](O)[C@H](N=C(N)N)[C@@H](O)[C@@H]3N=C(N)N)O[C@@H](C)[C@]2(O)C=O)O[C@@H](CO)[C@H](O)[C@H]1O [STREPTOMYCIN] | – | – | – | – | – | 25 (≈ 43 µM) | 50 (≈ 86 µM) | 50 (≈ 86 µM) | 12.5 (≈ 21.5 µM) | 25 (≈ 43 µM) | – | – | – | – | – | –
Cc1ccc(C2C(C)C(=O)C(C)C(c3ccc(C)cc3)N2C(=O)CCl)cc1 (configuration not stated) | 50 (≈ 130 µM) | 100 (≈ 260 µM) | 25 (≈ 65.1 µM) | 50 (≈ 130 µM) | 50 (≈ 130 µM) | 100 (≈ 260 µM) | 200 (≈ 521 µM) | 50 (≈ 130 µM) | 100 (≈ 260 µM) | 200 (≈ 521 µM) | – | – | – | – | – | –
O=C1CC(c2ccccc2)N(C(=O)CCl)C(c2ccccc2)C1 (configuration not stated) | 100 (≈ 305 µM) | – | – | 200 (≈ 610 µM) | – | 50 (≈ 153 µM) | 100 (≈ 305 µM) | – | – | 200 (≈ 610 µM) | – | inactive | inactive | inactive | inactive | inactive
CC1C(=O)CC(c2ccccc2)N(C(=O)CCl)C1c1ccccc1 (configuration not stated) | 200 (≈ 585 µM) | 200 (≈ 585 µM) | 100 (≈ 293 µM) | 200 (≈ 585 µM) | 100 (≈ 293 µM) | 50 (≈ 146 µM) | 200 (≈ 585 µM) | 100 (≈ 293 µM) | 100 (≈ 293 µM) | 100 (≈ 293 µM) | – | – | – | – | – | –
CCC1C(=O)CC(c2ccc(Cl)cc2)N(C(=O)CCl)C1c1ccc(Cl)cc1 (configuration not stated) | 25 (≈ 58.9 µM) | 12.5 (≈ 29.4 µM) | 50 (≈ 118 µM) | 100 (≈ 235 µM) | 50 (≈ 118 µM) | 12.5 (≈ 29.4 µM) | 50 (≈ 118 µM) | 50 (≈ 118 µM) | 25 (≈ 58.9 µM) | 25 (≈ 58.9 µM) | – | – | – | – | – | –
C[C@@H]1[C@H](O)[C@@H](C)/C=C/C=C/C=C/C=C/C=C/C=C/C=C/[C@H](O[C@@H]2O[C@H](C)[C@@H](O)[C@H](N)[C@@H]2O)C[C@@H]2O[C@](O)(C[C@@H](O)C[C@@H](O)[C@H](O)CC[C@@H](O)C[C@@H](O)CC(=O)O[C@H]1C)C[C@H](O)[C@H]2C(=O)O [AMPHOTERICIN B] | 50 (≈ 54.1 µM) | 50 (≈ 54.1 µM) | 25 (≈ 27.1 µM) | 25 (≈ 27.1 µM) | 25 (≈ 27.1 µM) | – | – | – | – | – | – | – | – | – | – | –
O=C(O)c1cn(C2CC2)c2cc(N3CCNCC3)c(F)cc2c1=O [CIPROFLOXACIN] | – | – | – | – | – | 50 (≈ 151 µM) | – | 25 (≈ 75.4 µM) | – | – | – | – | – | – | – | –
